MIC data for 34 compounds are collected here from ChEMBL document CHEMBL3272040, “3-Cyanocephems, and carbon-3 heterocyclic-substituted cephems via 1,3-dipolar cycloadditions” (1976).

In test [1] the test system is Streptococcus pyogenes. Kind of test: Antimicrobial activity against Streptococcus pyogenes MB-3124. The class given is functional.
Test [2] relates to Staphylococcus aureus. Kind of test: Antimicrobial activity against Staphylococcus aureus MB-2865. The test is classed as functional.

In brackets after ≈: the same amount, converted by molar mass.

For orientation: MIC means the least concentration at which growth counts as inhibited. A low value points to a more susceptible organism. On to `COC(=O)CO/N=C/C1=C(C(=O)OC)N2C(=O)[C@@H](NC(=O)Cc3cccs3)[C@H]2SC1`, for which, in test [1], the MIC was below 0.39 µg/mL.

In test [1], `COC(=O)CO/N=C/C1=C(C(=O)OC(c2ccccc2)c2ccccc2)N2C(=O)[C@@H](NC(=O)Cc3cccs3)[C@H]2SC1` yielded an MIC below 0.39 µg/mL.

`O=C(Cc1cccs1)N[C@@H]1C(=O)N2C(C(=O)OC(c3ccccc3)c3ccccc3)=C(/C=N/O)CS[C@H]12`: the MIC in test [1] was below 0.39 µg/mL.

The compound `Cc1ccc(S(=O)(=O)[N-]/N=C/C2=C(C(=O)OC(c3ccccc3)c3ccccc3)N3C(=O)[C@@H](NC(=O)Cc4cccs4)[C@H]3SC2)cc1.[Li+]` had an MIC in test [1] below 0.39 µg/mL.

In turn, `COC(=O)C1=C(c2cc(C(=O)OC)n(C)n2)CS[C@@H]2[C@H](NC(=O)Cc3cccs3)C(=O)N12` returned an MIC in test [1] below 0.39 µg/mL.

On to `Cc1ccc(S(=O)(=O)N(C)/N=C/C2=C(C(=O)O)N3C(=O)[C@@H](NC(=O)Cc4cccs4)[C@H]3SC2)cc1`, for which the MIC in test [2] and in test [1] was below 0.39 µg/mL in each case.

In turn, `CC(=O)N/N=C/C1=C(C(=O)OC(c2ccccc2)c2ccccc2)N2C(=O)[C@@H](NC(=O)Cc3cccs3)[C@H]2SC1` showed an MIC in test [1] below 0.39 µg/mL.

As for `CO/N=C/C1=C(C(=O)OC(c2ccccc2)c2ccccc2)N2C(=O)[C@@H](NC(=O)Cc3cccs3)[C@H]2SC1`, the MIC in test [1] was below 0.39 µg/mL.

Take `O=C(Cc1cccs1)N[C@@H]1C(=O)N2C(C(=O)OC(c3ccccc3)c3ccccc3)=C(/C=N/OCc3ccccc3)CS[C@H]12`: the MIC in test [1] was below 0.39 µg/mL.

Turning to `COC(=O)CO/N=C/C1=C(C(=O)O)N2C(=O)[C@@H](NC(=O)Cc3cccs3)[C@H]2SC1`, the values for the MIC in test [2] and in test [1] were 12.5 µg/mL (≈ 28.4 µM) and below 0.39 µg/mL, respectively.

Take `COC(=O)C1=C(/C=N/N(C)S(=O)(=O)c2ccc(C)cc2)CS[C@@H]2[C@H](NC(=O)Cc3cccs3)C(=O)N12`: in test [1], the MIC is below 0.39 µg/mL.

Take `O=C(Cc1cccs1)N[C@@H]1C(=O)N2C(C(=O)O)=C(c3cc(-c4ccccc4)on3)CS[C@H]12`: the MIC in test [2] and in test [1] was below 0.39 µg/mL throughout.

In test [1], `O=C(Cc1cccs1)N[C@@H]1C(=O)N2C(C(=O)OC(c3ccccc3)c3ccccc3)=C(C#[N+][O-])CS[C@H]12` came in with an MIC below 0.39 µg/mL.

For the compound `COC(=O)c1cc(C2=C(C(=O)OC(c3ccccc3)c3ccccc3)N3C(=O)[C@@H](NC(=O)Cc4cccs4)[C@H]3SC2)n[nH]1`, the MIC in test [1] is below 0.39 µg/mL.

`O=C(Cc1cccs1)N[C@@H]1C(=O)N2C(C(=O)OC(c3ccccc3)c3ccccc3)=C(c3cc(-c4ccccc4)on3)CS[C@H]12`: the MIC in test [1] is below 0.39 µg/mL.

`O=C(Cc1cccs1)N[C@@H]1C(=O)N2C(C(=O)O)=C(/C=N/O)CS[C@H]12`: the MIC in test [2] and in test [1] was below 0.39 µg/mL in each case.

In test [1], `O=CC1=C(C(=O)OC(c2ccccc2)c2ccccc2)N2C(=O)[C@@H](NC(=O)Cc3cccs3)[C@H]2SC1` came in with an MIC below 0.39 µg/mL.

The compound `O=C(Cc1cccs1)N[C@@H]1C(=O)N2C(C(=O)OC(c3ccccc3)c3ccccc3)=C(c3nn[nH]c3C(F)(F)F)CS[C@H]12` registered an MIC in test [1] below 0.39 µg/mL.

`COC(=O)c1cc(C2=C(C(=O)O)N3C(=O)[C@@H](NC(=O)Cc4cccs4)[C@H]3SC2)nn1C`: the MIC was 0.78 µg/mL (≈ 1.69 µM) in test [2] and below 0.39 µg/mL in test [1].

The compound `N#CC1=C(C(=O)OC(c2ccccc2)c2ccccc2)N2C(=O)[C@@H](NC(=O)Cc3cccs3)[C@H]2SC1` had a minimum inhibitory concentration (MIC) in test [1] below 0.39 µg/mL.

`COC(=O)C1=C(c2cc(-c3ccccc3)on2)CS[C@@H]2[C@H](NC(=O)Cc3cccs3)C(=O)N12`: in test [1], the MIC was below 0.39 µg/mL.

In test [1], `COC(=O)c1cc(C2=C(C(=O)OC(c3ccccc3)c3ccccc3)N3C(=O)[C@@H](NC(=O)Cc4cccs4)[C@H]3SC2)nn1C` returned an MIC below 0.39 µg/mL.

In the case of `COC(=O)c1[nH]nc(C2=C(C(=O)OC(c3ccccc3)c3ccccc3)N3C(=O)[C@@H](NC(=O)Cc4cccs4)[C@H]3SC2)c1C(=O)OC`, the MIC in test [1] is below 0.39 µg/mL.

Compound `Cc1ccc(S(=O)(=O)N(C)/N=C/C2=C(C(=O)OC(c3ccccc3)c3ccccc3)N3C(=O)[C@@H](NC(=O)Cc4cccs4)[C@H]3SC2)cc1` showed an MIC in test [1] below 0.39 µg/mL.

`O=C(O)CO/N=C/C1=C(C(=O)OC(c2ccccc2)c2ccccc2)N2C(=O)[C@@H](NC(=O)Cc3cccs3)[C@H]2SC1` displayed a minimal inhibitory concentration (MIC) in test [1] below 0.39 µg/mL.

`O=C(Cc1cccs1)N[C@@H]1C(=O)N2C(C(=O)OC(c3ccccc3)c3ccccc3)=C(/C=N/Nc3ccc([N+](=O)[O-])cc3)CS[C@H]12`: the MIC in test [1] was below 0.39 µg/mL.

As to `[N-]=[N+]=CC1=C(C(=O)OC(c2ccccc2)c2ccccc2)N2C(=O)[C@@H](NC(=O)Cc3cccs3)[C@H]2SC1`, the MIC in test [1] is below 0.39 µg/mL.

Take `COC(=O)C1=C(/C=N/O)CS[C@@H]2[C@H](NC(=O)Cc3cccs3)C(=O)N12`: the MIC in test [1] was below 0.39 µg/mL.

For `Cc1ccc(S(=O)(=O)N/N=C/C2=C(C(=O)OC(c3ccccc3)c3ccccc3)N3C(=O)[C@@H](NC(=O)Cc4cccs4)[C@H]3SC2)cc1`, the MIC in test [1] is below 0.39 µg/mL.

For `N#CC1=C(C(=O)O)N2C(=O)[C@@H](NC(=O)Cc3cccs3)[C@H]2SC1`, the figures for the MIC in test [2] and in test [1] were 0.78 µg/mL (≈ 2.23 µM) and below 0.39 µg/mL, respectively.

Take `CCOC(=O)C1CC(C2=C(C(=O)OC(c3ccccc3)c3ccccc3)N3C(=O)[C@@H](NC(=O)Cc4cccs4)[C@H]3SC2)=NN1` (stereo partly specified): the MIC in test [1] was below 0.39 µg/mL.

In turn, `CCOC(=O)N/N=C/C1=C(C(=O)OC(c2ccccc2)c2ccccc2)N2C(=O)[C@@H](NC(=O)Cc3cccs3)[C@H]2SC1` displayed an MIC in test [1] below 0.39 µg/mL.

`COC(=O)c1cc(C2=C(C(=O)O)N3C(=O)[C@@H](NC(=O)Cc4cccs4)[C@H]3SC2)n[nH]1`: the MIC in test [2] was 3.12 µg/mL (≈ 6.96 µM); in test [1], below 0.39 µg/mL.

As to `O=C(Cc1cccs1)N[C@@H]1C(=O)N2C(C(=O)OC(c3ccccc3)c3ccccc3)=C(/C=N/NC(=O)c3ccccc3)CS[C@H]12`, the MIC in test [1] was below 0.39 µg/mL.
